# In patent US8367873B2, “Phenyl-substituted bicyclooctane-1,3-dione derivatives” (Bayer Cropscience AG, priority 2008, dated 2013):
# Experiments:
# Assay type in all cases: in vivo
# [1] = test system: monocotylidonous and dicotylidonous weed and crop plants; experiment: Herbicidal pre-emergence action (other test plants); conditions: pre-emergence method, 80 g/ha, greenhouse, visual assessment vs untreated controls
# Text: (§1) Seeds of monocotylidonous and dicotylidonous weed and crop plants are placed in sandy loam in wood fibre pots and covered with soil. The test compounds, formulated in the form of wettable powders (WP), are then, as an aqueous suspension with a water application rate of 600 l/ha (converted), with 0.2% of wetting agent added, applied to the surface of the covering soil in different amounts.
# (§2) After the treatment, the pots are placed in a greenhouse and kept under good growth conditions for the test plants. The visual assessment of the emergence damage on the test plants is carried out after a trial period of three weeks by comparison with the untreated controls (herbicidal effect in percent: 100% effect=the plants have died, 0% effect=like control plants).
# Echinocloa crus-galli [2] = experiment: Herbicidal pre-emergence action; conditions: pre-emergence method, 80 g/ha, greenhouse, visual assessment vs untreated controls
# Text: as §1, §2
# Lolium multiflorum [3] = experiment: Herbicidal pre-emergence action; conditions: pre-emergence method, 80 g/ha, greenhouse, visual assessment vs untreated controls
# Text: as §1, §2
# Setaria viridis [4] = experiment: Herbicidal pre-emergence action; conditions: pre-emergence method, 80 g/ha, greenhouse, visual assessment vs untreated controls
# Text: as §1, §2
# Alopecurus myosuroides [5] = experiment: Herbicidal pre-emergence action; conditions: pre-emergence method, 80 g/ha, greenhouse, visual assessment vs untreated controls
# Text: as §1, §2
# [6] = test system: monocotylidonous and dicotylidonous weed and crop plants; experiment: Herbicidal post-emergence action (other test plants); conditions: post-emergence method, 80 g/ha
# Summary of the method: (§3)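 Visual % herbicidal effect vs untreated controls (100% = plants dead, 0% = as control), ~3 wk after spraying. Plants sown in sandy loam, greenhouse-grown, treated at one-leaf stage (2–3 wk post-sowing). WP formulations, 600 l/ha water + 0.2% wetting agent, various doses.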
# Echinocloa crus-galli [7] = experiment: Herbicidal post-emergence action; conditions: post-emergence method, 80 g/ha
# Summary of the method: as §3
# Lolium multiflorum [8] = experiment: Herbicidal post-emergence action; conditions: post-emergence method, 80 g/ha
# Summary of the method: as §3
# Setaria viridis [9] = experiment: Herbicidal post-emergence action; conditions: post-emergence method, 80 g/ha
# Summary of the method: as §3
# Alopecurus myosuroides [10] = experiment: Herbicidal post-emergence action; conditions: post-emergence method, 80 g/ha
# Summary of the method: as §3
Compound,herbicidal effect AVEFA [1],herbicidal effect ECHCG (Echinocloa crus-galli [2]),herbicidal effect LOLMU (Lolium multiflorum [3]),herbicidal effect SETVI (Setaria viridis [4]),herbicidal effect ALOMY (Alopecurus myosuroides [5]),herbicidal effect against AVEFA (Avena fatua) [6],herbicidal effect against ECHCG (Echinochloa crus-galli) (Echinocloa crus-galli [7]),herbicidal effect against LOLMU (Lolium multiflorum) (Lolium multiflorum [8]),herbicidal effect against SETVI (Setaria viridis) (Setaria viridis [9]),herbicidal effect against ALOMY (Alopecurus myosuroides) (Alopecurus myosuroides [10])
Cc1cc(C)c(C2=C(OC(=O)C(C)C)C3CC4(COC(C)(C)O4)CC3C2=O)c(C)c1 (mixture of isomers) [I-b-46],60%,0%,100%,0%,90%,40%,90%,100%,80%,90%
Cc1cc(C)c(C2=C(OC(=O)C(C)(C)C)C3CC4(COC(C)(C)O4)CC3C2=O)c(C)c1 (mixture of isomers) [I-b-48],20%,0%,70%,0%,80%,40%,90%,90%,80%,90%
CC(=O)OC1=C(c2c(C)cc(C)cc2C)C(=O)C2CC3(COC(C)(C)O3)CC12 (mixture of isomers) [I-b-49],70%,50%,70%,0%,90%,80%,100%,100%,60%,90%
Cc1cc(C)c(C2=C(OC(=O)C(C)(C)CCl)C3CC4(COC(C)(C)O4)CC3C2=O)c(C)c1 (mixture of isomers) [I-b-51],30%,30%,70%,0%,80%,0%,100%,60%,40%,90%
CCOC(=O)OC1=C(c2c(CC)cc(C)cc2CC)C(=O)C2CC3(CC12)OCC(C)O3 (mixture of isomers) [I-c-8],40%,60%,100%,50%,60%,60%,100%,100%,90%,90%
CCOC(=O)OC1=C(c2c(CC)cc(C)cc2CC)C(=O)C2CC3(CC12)OCCCS3 (mixture of isomers) [I-c-19],70%,50%,90%,90%,100%,100%,100%,100%,100%,100%
CCOC(=O)OC1=C(c2c(CC)cc(C)cc2CC)C(=O)C2CC3(CC12)OCCS3 (mixture of isomers) [I-c-30],90%,80%,100%,60%,100%,40%,100%,100%,70%,80%
